Target: T1, human PTH1 receptor (Homo sapiens, UniProt Q03431)
T1 sequence (Q03431 27-593): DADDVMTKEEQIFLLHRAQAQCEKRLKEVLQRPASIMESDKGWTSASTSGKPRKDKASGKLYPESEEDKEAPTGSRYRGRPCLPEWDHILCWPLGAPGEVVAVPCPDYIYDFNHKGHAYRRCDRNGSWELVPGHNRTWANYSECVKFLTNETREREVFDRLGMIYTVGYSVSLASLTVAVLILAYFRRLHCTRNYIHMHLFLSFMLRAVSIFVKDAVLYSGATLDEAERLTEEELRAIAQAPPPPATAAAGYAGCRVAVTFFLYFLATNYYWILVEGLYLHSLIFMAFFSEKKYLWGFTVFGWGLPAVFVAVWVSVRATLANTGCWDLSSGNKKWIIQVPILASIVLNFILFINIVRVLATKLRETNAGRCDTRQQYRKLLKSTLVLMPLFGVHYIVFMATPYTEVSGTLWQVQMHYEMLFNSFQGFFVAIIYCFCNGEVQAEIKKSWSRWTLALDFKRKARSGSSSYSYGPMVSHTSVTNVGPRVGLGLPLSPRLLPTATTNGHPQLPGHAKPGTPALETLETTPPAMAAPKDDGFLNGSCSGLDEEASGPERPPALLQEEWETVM
Test: In vitro cAMP signal activity in HKRK-B7 cells (LLC-PK1 cells overexpressing the human PTH1 receptor)
Assay type: cell-based
Conditions: HKRK-B7 cells, cAMP produced as percentage of that produced by hPTH(1-34) at 100 nM

cAMP production activity (%) (compound at 1×10^−3 M) | cAMP production activity (%) (compound at 3×10^−4 M (* Compound 15)) | SMILES
20 |  | CCCC1=NC2(CCN(S(=O)(=O)c3cccc(Cl)c3)CC2)C(=O)N1 [Compound 3, 8-(3-chloro-benzenesulfonyl)-2-propyl-1,3,8-triaza-spiro[4.5]dec-1-en-4-one]
4.2 |  | O=C1NC(c2cccc(Cl)c2)=NC12CCN(S(=O)(=O)c1cccc(Cl)c1)CC2 [Compound 6, 8-(3-chloro-benzenesulfonyl)-2-(3-chloro-phenyl)-1,3,8-triaza-spiro[4.5]dec-1-en-4-one]
2.6 |  | CC1=NC2(CCN(S(=O)(=O)c3cccc(Cl)c3)CC2)C(=O)N1 [Compound 8, 8-(3-chloro-benzenesulfonyl)-2-methyl-1,3,8-triaza-spiro[4.5]dec-1-en-4-one]
16 |  | Cc1ccccc1C1=NC2(CCN(S(=O)(=O)c3cccc(Cl)c3)CC2)C(=O)N1 [Compound 11, 8-(3-chloro-benzenesulfonyl)-2-o-tolyl-1,3,8-triaza-spiro[4.5]dec-1-en-4-one]
12 |  | O=C1NC(c2ccc(C(F)(F)F)cc2)=NC12CCN(S(=O)(=O)c1cccc(Cl)c1)CC2 [Compound 12, 8-(3-chloro-benzenesulfonyl)-2-(4-trifluoromethyl-phenyl)-1,3,8-triaza-spiro[4.5]dec-1-en-4-one]
38 |  | CC1(C2=NC3(CCN(S(=O)(=O)c4cccc(Cl)c4)CC3)C(=O)N2)CCCCC1 [Compound 14, 8-(3-chloro-benzenesulfonyl)-2-(1-methyl-cyclohexyl)-1,3,8-triaza-spiro[4.5]dec-1-en-4-one]
 | 1.8* % | CC(=O)N1CCC(C2=NC3(CCN(S(=O)(=O)c4cccc(Cl)c4)CC3)C(=O)N2)CC1 [Compound 15, 2-(1-acetyl-piperidin-4-yl)-8-(3-chloro-benzenesulfonyl)-1,3,8-triaza-spiro[4.5]dec-1-en-4-one]
41 |  | CC(C)(C)C1=NC2(CCN(S(=O)(=O)c3cccc(Cl)c3)CC2)C(=O)N1 [Compound 16, 2-tert-butyl-8-(3-chloro-benzenesulfonyl)-1,3,8-triaza-spiro[4.5]dec-1-en-4-one]
35 |  | CC1CCCC(C2=NC3(CCN(S(=O)(=O)c4cccc(Cl)c4)CC3)C(=O)N2)C1 (centres unmarked) [Compound 19, 8-(3-chloro-benzenesulfonyl)-2-(3-methyl-cyclohexyl)-1,3,8-triaza-spiro[4.5]dec-1-en-4-one]
38 |  | CC1CCCCC1C1=NC2(CCN(S(=O)(=O)c3cccc(Cl)c3)CC2)C(=O)N1 (centres unmarked) [Compound 20, 8-(3-chloro-benzenesulfonyl)-2-(2-methyl-cyclohexyl)-1,3,8-triaza-spiro[4.5]dec-1-en-4-one]
43 |  | O=C1NC([C@H]2C[C@H]3CC[C@@H]2C3)=NC12CCN(S(=O)(=O)c1cccc(Cl)c1)CC2 [Compound 22, 2-(1R,2S,4S)-bicyclo[2.2.1]hept-2-yl-8-(3-chloro-benzenesulfonyl)-1,3,8-triaza-spiro[4.5]dec-1-en-4-one]
18 |  | CO[C@H]1CC[C@@H](C2=NC3(CCN(S(=O)(=O)c4cccc(Cl)c4)CC3)C(=O)N2)CC1 [Compound 24, 8-(3-chloro-benzenesulfonyl)-2-(4-methoxy-cyclohexyl)-1,3,8-triaza-spiro[4.5]dec-1-en-4-one]
31 |  | O=C1NC(CC2CCCCC2)=NC12CCN(S(=O)(=O)c1cccc(Cl)c1)CC2 [Compound 28, 8-(3-chloro-benzenesulfonyl)-2-cyclohexylmethyl-1,3,8-triaza-spiro[4.5]dec-1-en-4-one]
26 |  | CS(=O)(=O)c1cccc(C2=NC3(CCN(S(=O)(=O)c4cccc(Cl)c4)CC3)C(=O)N2)c1 [Compound 32, 8-(3-chloro-benzenesulfonyl)-2-(3-methanesulfonyl-phenyl)-1,3,8-triaza-spiro[4.5]dec-1-en-4-one]

Second part, the compound before the results:

SMILES | cAMP production activity (%) (compound at 1×10^−3 M) | cAMP production activity (%) (compound at 3×10^−4 M (* Compound 15))
Cc1cc(N2C(=O)CCC2CO)ccc1/C=C/S(=O)(=O)N1CCC2(CC1)N=C(c1cccc(C(F)(F)F)c1)NC2=O (stereo in doubt) [Compound 221, 8-{(E)-2-[4-((R)-2-hydroxymethyl-5-oxo-pyrrolidin-1-yl)-2-methyl-phenyl]-ethenesulfonyl}-2-(3-trifluoromethyl-phenyl)-1,3,8-triaza-spiro[4.5]dec-1-en-4-one] | 103 | 
O=C1NC(C2CCCCC2)=NC12CCN(S(=O)(=O)c1cccc(Cl)c1)CC2 [Compound 1, 8-(3-Chloro-benzenesulfonyl)-2-cyclohexyl-1,3,8-triaza-spiro[4.5]dec-1-en-4-one] | 42 | 
O=C1NC(c2ccncc2)=NC12CCN(S(=O)(=O)c1cccc(Cl)c1)CC2 [Compound 2, 8-(3-chloro-benzenesulfonyl)-2-pyridin-4-yl-1,3,8-triaza-spiro[4.5]dec-1-en-4-one] | 1.0 | 
CC(C)C1=NC2(CCN(S(=O)(=O)c3cccc(Cl)c3)CC2)C(=O)N1 [Compound 4, 8-(3-chloro-benzenesulfonyl)-2-isopropyl-1,3,8-triaza-spiro[4.5]dec-1-en-4-one] | 11 | 
COc1cccc(C2=NC3(CCN(S(=O)(=O)c4cccc(Cl)c4)CC3)C(=O)N2)c1 [Compound 5, 8-(3-chloro-benzenesulfonyl)-2-(3-methoxy-phenyl)-1,3,8-triaza-spiro[4.5]dec-1-en-4-one] | 2.5 | 
O=C1NC(Cc2ccccc2)=NC12CCN(S(=O)(=O)c1cccc(Cl)c1)CC2 [Compound 7, 2-benzyl-8-(3-chloro-benzenesulfonyl)-1,3,8-triaza-spiro[4.5]dec-1-en-4-one] | 13 | 
O=C1NC(c2ccccc2-c2ccccc2)=NC12CCN(S(=O)(=O)c1cccc(Cl)c1)CC2 [Compound 10, 2-biphenyl-2-yl-8-(3-chloro-benzenesulfonyl)-1,3,8-triaza-spiro[4.5]dec-1-en-4-one] | 2.4 | 
O=C1NC(c2cccc(OC(F)(F)F)c2)=NC12CCN(S(=O)(=O)c1cccc(Cl)c1)CC2 [Compound 13, 8-(3-chloro-benzenesulfonyl)-2-(3-trifluoromethoxy-phenyl)-1,3,8-triaza-spiro[4.5]dec-1-en-4-one] | 31 | 
O=C1NC(C2CCC(C(F)(F)F)CC2)=NC12CCN(S(=O)(=O)c1cccc(Cl)c1)CC2 (centres unmarked) [Compound 17, 8-(3-chloro-benzenesulfonyl)-2-(4-trifluoromethyl-cyclohexyl)-1,3,8-triaza-spiro[4.5]dec-1-en-4-one] | 39 | 
CC(C)(C)OC(=O)N1CCCC(C2=NC3(CCN(S(=O)(=O)c4cccc(Cl)c4)CC3)C(=O)N2)C1 (centres unmarked) [Compound 18, 3-[8-(3-chloro-benzenesulfonyl)-4-oxo-1,3,8-triaza-spiro[4.5]dec-1-en-2-yl]-piperidine-1-carboxylic acid tert-butyl ester] | 44 | 
CCC[C@H]1CC[C@H](C2=NC3(CCN(S(=O)(=O)c4cccc(Cl)c4)CC3)C(=O)N2)CC1 [Compound 21, 8-(3-chloro-benzenesulfonyl)-2-(4-propyl-cyclohexyl)-1,3,8-triaza-spiro[4.5]dec-1-en-4-one] | 42 | 
O=C1NC([C@@H]2C[C@H]3CC[C@@H]2C3)=NC12CCN(S(=O)(=O)c1cccc(Cl)c1)CC2 [Compound 23, 2-(1R,2R,4S)-bicyclo[2.2.1]hept-2-yl-8-(3-chloro-benzenesulfonyl)-1,3,8-triaza-spiro[4.5]dec-1-en-4-one] | 41 | 
CO[C@H]1CC[C@H](C2=NC3(CCN(S(=O)(=O)c4cccc(Cl)c4)CC3)C(=O)N2)CC1 [Compound 25, 8-(3-chloro-benzenesulfonyl)-2-(4-methoxy-cyclohexyl)-1,3,8-triaza-spiro[4.5]dec-1-en-4-one] | 18 | 
CC(C)(C)[C@H]1CC[C@H](C2=NC3(CCN(S(=O)(=O)c4cccc(Cl)c4)CC3)C(=O)N2)CC1 [Compound 26, 2-(4-tert-butyl-cyclohexyl)-8-(3-chloro-benzenesulfonyl)-1,3,8-triaza-spiro[4.5]dec-1-en-4-one] | 36 | 
O=C1NC(C2CCC(CF)CC2)=NC12CCN(S(=O)(=O)c1cccc(Cl)c1)CC2 (centres unmarked) [Compound 27, 8-(3-chloro-benzenesulfonyl)-2-(4-fluoromethyl-cyclohexyl)-1,3,8-triaza-spiro[4.5]dec-1-en-4-one] | 42 | 
O=C1NC(CCc2ccccc2)=NC12CCN(S(=O)(=O)c1cccc(Cl)c1)CC2 [Compound 29, 8-(3-chloro-benzenesulfonyl)-2-phenethyl-1,3,8-triaza-spiro[4.5]dec-1-en-4-one] | 28 | 
O=C1NC(CCC2CCCCC2)=NC12CCN(S(=O)(=O)c1cccc(Cl)c1)CC2 [Compound 30, 8-(3-chloro-benzenesulfonyl)-2-(2-cyclohexyl-ethyl)-1,3,8-triaza-spiro[4.5]dec-1-en-4-one] | 26 | 
O=C1NC(c2cccc(C(F)(F)F)c2)=NC12CCN(S(=O)(=O)c1cccc(Cl)c1)CC2 [Compound 31, 8-(3-chloro-benzenesulfonyl)-2-(3-trifluoromethyl-phenyl)-1,3,8-triaza-spiro[4.5]dec-1-en-4-one] | 41 | 

Reference: patent US9169254B2, “Spiroimidazolone derivative” (Chugai Seiyaku Kabushiki Kaisha, priority 2009, dated 2015)
